Structures can show the parent of a compound that is named as a salt.
Assays:
[1] = target: T1, Ba/F3-L858R/T790M/C797S (Homo sapiens, UniProt P00533, T790M/C797S/L858R, cells depend on it); test: Ba/F3-L858R/T790M/C797S cells proliferation assay; format: cell-based; conditions: cell proliferation, 72 h, CellTiter Glo; class symbols; read-out: BaF3 L858R/T790M/C797S IC50
T1 construct: BaF3 L858R/T790M/C797S IC50; other: cell proliferation, 72 h, CellTiter Glo; class symbols; numeric values
Experimental: (§1) a) The medium was preheated in a 37 water bath in advance.
(§2) b) Remove the cryogenic vials from the liquid nitrogen tank, quickly put it into a 37° C. water bath, and completely melt it in 1 min.
(§3) c) Transfer the cell suspension to a 15 mL centrifuge tube containing 8 mL medium, centrifuge 1000 rpm, 5 min,
(§4) d) Discard the supernatant, resuspend the cells in 1 mL medium, and transfer to a 75 cm^2 flask containing 15 mL medium, culture the cells in an incubator at 37° C., 5% CO2.
(§5) a) The medium was preheated in a 37° C.; water bath in advance.
(§6) b) Collect cell to a 15 mL centrifuged tube, centrifuge at 1000 rpm for 5 min. Discard the supernatant, count, and make the cell density at 1×10^4 cells/mL, then place it in a 37° C., 5% CO2 incubator.
(§7) b) The above compound solution was diluted 1:20 times with culture medium to prepare a 10 fold working solution;
(§8) a) Take cells in log phase growth, centrifuge at 1000 rpm for 5 min, then resuspend the cells with culture medium, then count cells;
(§9) b) Cells were seeded to 96-well cell culture plate with density at 2000 cells/well;
(§10) The blank control well was a culture medium (0.5% DMSO);
(§11) b) The cells were incubated for an additional 72 h in the incubator.
(§12) a) Remove the 96-well cell culture plate and add 50 μl of CTG reagent (CellTiter Glo kit, promega, Cat #G7573).
(§13) b) Plate was shaked for 2 min and then let it cool for 10 min at room temperature.
(§14) c) The Luminescence signal value was read using a PerkinElmer reader.
(§15) Experimental Data Analysis
(§16) Data were analyzed using GraphPad Prism 6.0 software to obtain a fitted curve of compound activity.
(§17) Y=Bottom+(Top−Bottom)/(1+10^((Log IC50−X)*Hill Slope));
(§18) The cells proliferation assay results are expressed with IC50, shown as Table 2.

[2] = system: HCC827(Δ19del); test: HCC827 cells proliferation assay; format: cell-based; conditions: Homo sapiens, HCC827; cell proliferation, 72 h, CellTiter Glo; class symbols; read-out: HCC827 IC50
Experimental: (§19) Test 3 H1975 and HCC827 Cells Proliferation Assay
(§20) a) The medium was preheated in a 37° C. water bath in advance.
as §2
(§21) c) Transfer the cell suspension to a 15 mL centrifuge tube containing 8 mL medium, centrifuge 1000 rpm, 5 min.
as §4, §6, §7, §8
(§22) b) Cells were seeded to 96-well cell culture plate with density at 2000 cells/well (suitable for H1975 cell) and at 2500 cells/well (suitable for HCC827 cell);
as §10, §11, §12, §13, §14, §15, §16
(§23) Y=Bottom+(Top−Bottom)/(1+10^((Log IC50−X)*HillSlope));
as §18

[3] = target: Ba/F3-Δ19del/T790M/C797S (Homo sapiens, UniProt P00533, T790M/C797S, cells depend on it, form not given); test: Ba/F3-Δ19del/T790M/C797S cells proliferation assay; format: cell-based; conditions: cell proliferation, 72 h, CellTiter Glo; class symbols; read-out: BaF3 Δ 19del/T790M/C797S IC50
Chain of Ba/F3-Δ19del/T790M/C797S (P00533 with tags, fused parts or gaps DEL746-750/T790M/C797S, form open): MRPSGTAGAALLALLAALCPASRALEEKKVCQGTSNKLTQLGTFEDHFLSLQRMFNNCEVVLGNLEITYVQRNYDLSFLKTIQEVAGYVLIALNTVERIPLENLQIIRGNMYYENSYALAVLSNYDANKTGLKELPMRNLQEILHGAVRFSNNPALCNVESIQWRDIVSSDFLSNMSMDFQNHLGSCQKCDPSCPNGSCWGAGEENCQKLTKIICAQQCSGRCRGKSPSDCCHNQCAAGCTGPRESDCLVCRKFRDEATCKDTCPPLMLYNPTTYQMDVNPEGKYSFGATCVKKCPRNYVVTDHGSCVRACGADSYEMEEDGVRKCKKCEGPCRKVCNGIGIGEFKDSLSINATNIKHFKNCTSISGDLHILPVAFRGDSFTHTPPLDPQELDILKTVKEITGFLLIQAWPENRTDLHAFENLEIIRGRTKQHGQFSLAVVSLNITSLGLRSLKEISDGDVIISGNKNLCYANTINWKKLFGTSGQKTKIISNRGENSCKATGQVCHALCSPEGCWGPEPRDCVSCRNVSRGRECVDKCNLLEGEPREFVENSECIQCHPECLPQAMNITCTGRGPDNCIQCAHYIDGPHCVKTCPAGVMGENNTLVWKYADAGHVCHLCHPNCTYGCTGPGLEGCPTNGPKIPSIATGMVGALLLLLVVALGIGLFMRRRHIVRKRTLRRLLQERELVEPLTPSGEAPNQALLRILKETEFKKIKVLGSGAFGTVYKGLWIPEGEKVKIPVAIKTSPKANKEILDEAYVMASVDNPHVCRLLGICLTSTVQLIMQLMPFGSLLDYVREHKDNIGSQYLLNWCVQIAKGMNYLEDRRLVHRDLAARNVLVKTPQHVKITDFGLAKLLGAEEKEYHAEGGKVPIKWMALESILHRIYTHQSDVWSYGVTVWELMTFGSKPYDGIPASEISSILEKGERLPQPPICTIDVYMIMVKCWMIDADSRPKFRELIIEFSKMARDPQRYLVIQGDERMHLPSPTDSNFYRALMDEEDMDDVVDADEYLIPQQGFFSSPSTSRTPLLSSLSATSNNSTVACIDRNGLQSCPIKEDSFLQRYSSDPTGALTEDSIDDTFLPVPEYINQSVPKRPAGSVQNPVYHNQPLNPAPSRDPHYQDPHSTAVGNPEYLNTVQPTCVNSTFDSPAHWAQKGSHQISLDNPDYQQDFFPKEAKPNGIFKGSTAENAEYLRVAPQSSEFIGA
Experimental: as §1, §2, §3, §4, §5, §6, §7, §8, §9, §10, §11, §12, §13, §14, §15, §16, §17, §18

[4] = target: EGFR Δ19del/T790M/C797S (Homo sapiens, UniProt P00533, T790M/C797S, form not given); test: Kinase assay (mobility shift) for EGFR Δ19del/T790M/C797S; format: biochemical; conditions: read-out: EGFR Δ 19del/T790M/C797S IC50
Chain of EGFR Δ19del/T790M/C797S (P00533 with tags, fused parts or gaps DEL746-750/T790M/C797S, form open): as above
Experimental: (§24) Enzyme reaction protocol are as followed:
(§25) 1. Preparing 1* Kinase buffer as followed.
(§26) 2. Preparing Compound Concentration Gradient: Compounds were tested at a concentration of 300 nM, diluted to 100-fold final concentration in 100% DMSO solution in 96-well plates, and compounds were diluted 3 times with Precision, 10 concentrations. Each concentration of the compound was then further diluted to a 5-fold final concentration of the intermediate dilution solution using 1* Kinase buffer.
(§27) 3. 5 μL of each of the prepared intermediate dilution compounds was separately added to the compound wells of the 384-well plate, and each concentration was tested for duplicate wells; 5 μL of 5% DMSO was added to the negative control wells and the positive control wells, respectively.
(§28) 4. 2.5-fold final concentration of the kinase solution was prepared using 1*Kinase buffer.
(§29) 6. Centrifuge at 1000 rpm for 30 seconds, shake the reaction plate and incubate for 10 minutes at room temperature.
(§30) 8. 10 μL of a 2.5-fold final concentration of a mixed solution of ATP and a substrate was added to initiate the reaction.
(§31) 9. Centrifuge the 384-well plate at 1000 rpm for 30 seconds, mix by shaking, and incubate at room temperature for the corresponding time.
(§32) 10. Add 30 μL of the stop solution to stop the kinase reaction, centrifuge at 1000 rpm for 30 seconds, and mix by shaking.
(§33) 11. Read the conversion rate with Caliper EZ Reader.
(§34) Convert conversion values to inhibition values:
(§35) Percent inhibition=(max−conversion % sample)/(max−min)*100.
(§36) “max” stands for the mean value of the positive control well ratio; “min” stands for the mean value of the negative control well; conversion % sample: sample conversion reading.
(§37) Fit the data in log(inhibitor) vs. response Variable slope of GraphPad Prism 5 to obtain IC50 values.
(§38) Equation used is: Y=Bottom+(Top−Bottom)/(1+(IC50/X)*HillSlope)

[5] = system: H1975(L858R/T790M); test: H1975 cells proliferation assay; format: cell-based; conditions: Homo sapiens, NCI-H1975; cell proliferation, 72 h, CellTiter Glo; class symbols; read-out: H1975 IC50
Experimental: as §19, §20, §2, §21, §4, §6, §7, §8, §22, §10, §11, §12, §13, §14, §15, §16, §23, §18

[6] = target: EGFR T790M/L858R (Homo sapiens, UniProt P00533, L858R/T790M); test: Kinase assay (mobility shift) for EGFR T790M/L858R; format: biochemical
Experimental: as §24, §25, §26, §27, §28, §29, §30, §31, §32, §33, §34, §35, §36, §37, §38

[7] = target: EGFR L858R (Homo sapiens, UniProt P00533, L858R); test: Kinase assay (mobility shift) for EGFR L858R; format: biochemical
Chain of EGFR L858R (P00533 25-1210 L858R): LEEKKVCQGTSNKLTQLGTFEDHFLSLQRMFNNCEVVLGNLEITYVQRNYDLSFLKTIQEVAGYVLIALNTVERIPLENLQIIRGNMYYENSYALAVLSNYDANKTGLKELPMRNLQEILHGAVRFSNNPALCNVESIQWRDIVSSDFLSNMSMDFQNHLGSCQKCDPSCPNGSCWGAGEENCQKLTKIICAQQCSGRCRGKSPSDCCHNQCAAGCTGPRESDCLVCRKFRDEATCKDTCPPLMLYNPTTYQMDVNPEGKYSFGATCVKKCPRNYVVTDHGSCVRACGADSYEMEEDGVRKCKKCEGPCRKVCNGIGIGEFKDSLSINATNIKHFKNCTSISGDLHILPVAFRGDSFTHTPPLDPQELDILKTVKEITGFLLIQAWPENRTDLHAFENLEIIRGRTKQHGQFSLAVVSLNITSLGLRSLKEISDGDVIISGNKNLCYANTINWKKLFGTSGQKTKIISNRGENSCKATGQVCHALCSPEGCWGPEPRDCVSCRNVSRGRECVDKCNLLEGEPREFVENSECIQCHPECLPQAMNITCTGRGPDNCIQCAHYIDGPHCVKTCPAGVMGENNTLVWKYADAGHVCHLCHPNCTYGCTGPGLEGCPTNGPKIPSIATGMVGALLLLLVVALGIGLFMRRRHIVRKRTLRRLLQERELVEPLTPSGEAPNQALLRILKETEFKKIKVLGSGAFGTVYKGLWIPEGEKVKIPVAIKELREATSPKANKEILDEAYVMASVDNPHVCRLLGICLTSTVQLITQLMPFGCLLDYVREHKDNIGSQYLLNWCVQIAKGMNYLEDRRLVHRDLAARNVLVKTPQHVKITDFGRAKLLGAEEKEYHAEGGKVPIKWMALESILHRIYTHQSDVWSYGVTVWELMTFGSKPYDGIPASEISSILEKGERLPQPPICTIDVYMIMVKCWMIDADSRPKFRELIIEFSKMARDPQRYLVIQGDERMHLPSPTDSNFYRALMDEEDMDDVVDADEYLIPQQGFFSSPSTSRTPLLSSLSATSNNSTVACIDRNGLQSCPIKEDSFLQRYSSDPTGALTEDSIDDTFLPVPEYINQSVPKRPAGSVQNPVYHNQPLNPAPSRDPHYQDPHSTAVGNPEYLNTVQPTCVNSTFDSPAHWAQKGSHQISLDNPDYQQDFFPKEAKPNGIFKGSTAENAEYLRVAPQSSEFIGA
Experimental: as §24, §25, §26, §27, §28, §29, §30, §31, §32, §33, §34, §35, §36, §37, §38

T1 sequence (P00533 whole entry T790M/C797S/L858R): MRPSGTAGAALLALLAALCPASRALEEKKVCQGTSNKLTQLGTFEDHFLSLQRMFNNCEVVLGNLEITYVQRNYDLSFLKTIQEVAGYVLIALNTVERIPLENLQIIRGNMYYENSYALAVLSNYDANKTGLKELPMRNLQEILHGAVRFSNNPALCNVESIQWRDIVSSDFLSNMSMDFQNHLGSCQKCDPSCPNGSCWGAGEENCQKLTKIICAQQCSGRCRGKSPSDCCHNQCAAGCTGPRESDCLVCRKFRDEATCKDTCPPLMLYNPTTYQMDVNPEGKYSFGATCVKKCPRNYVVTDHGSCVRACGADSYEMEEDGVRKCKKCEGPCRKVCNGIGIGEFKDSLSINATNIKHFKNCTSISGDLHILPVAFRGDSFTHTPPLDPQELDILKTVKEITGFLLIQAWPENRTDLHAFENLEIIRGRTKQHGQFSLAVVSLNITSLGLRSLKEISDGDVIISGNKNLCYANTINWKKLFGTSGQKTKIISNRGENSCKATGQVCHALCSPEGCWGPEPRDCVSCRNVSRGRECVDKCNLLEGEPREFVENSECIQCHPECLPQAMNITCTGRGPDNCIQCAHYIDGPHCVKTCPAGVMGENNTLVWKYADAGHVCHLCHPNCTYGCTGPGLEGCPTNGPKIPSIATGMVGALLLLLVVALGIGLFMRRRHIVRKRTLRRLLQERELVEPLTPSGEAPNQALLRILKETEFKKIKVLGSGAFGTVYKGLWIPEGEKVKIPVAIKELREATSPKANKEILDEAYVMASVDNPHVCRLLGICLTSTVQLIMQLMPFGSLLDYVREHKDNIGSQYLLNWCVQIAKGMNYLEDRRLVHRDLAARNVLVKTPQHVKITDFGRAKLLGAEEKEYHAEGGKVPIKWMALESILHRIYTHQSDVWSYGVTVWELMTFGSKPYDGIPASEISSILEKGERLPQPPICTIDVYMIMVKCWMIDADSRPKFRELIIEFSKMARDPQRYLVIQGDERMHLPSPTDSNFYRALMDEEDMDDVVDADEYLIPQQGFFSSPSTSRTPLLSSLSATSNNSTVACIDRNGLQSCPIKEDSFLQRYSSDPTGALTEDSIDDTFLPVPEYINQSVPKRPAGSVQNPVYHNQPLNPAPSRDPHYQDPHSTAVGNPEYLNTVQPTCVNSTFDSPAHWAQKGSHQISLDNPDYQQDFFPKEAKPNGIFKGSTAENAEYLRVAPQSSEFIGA

## C=C(C)C(=O)Nc1cc(Nc2ncc(Cl)c(Nc3ccccc3P(C)(C)=O)n2)ccc1N1CCC2(CC1)CC(N(C)C)C2 [Compound 7, N-(5-((5-chloro-4-((2-(dimethylphosphoryl)phenyl)amino)pyrimidin-2-yl)amino)-2-(2-(dimethylamino)-7-azaspiro[3.5]nonan-7-yl)phenyl)methacrylamide]
[1]
  GI50: 10 to 50 nM
[2]
  IC50: 10 to 50 nM
[3]
  GI50: 10 to 50 nM
[4]
  IC50: < 10 nM

## C=CC(=O)Nc1cc(Nc2ncc(F)c(Nc3ccccc3P(C)(C)=O)n2)ccc1N(C)CCN(C)C [Compound 32, N-(2-((2-(dimethylamino)ethyl)(methyl)amino)-5-(4-(2-(dimethylphosphoryl)phenylamino)-5-fluoropyrimidin-2-ylamino)phenyl)acrylamide]
[5]
  IC50: 10 to 50 nM
[2]
  IC50: < 10 nM
[6]
  IC50: < 10 nM
[4]
  IC50: 10 to 100 nM
[7]
  IC50: < 10 nM

## C=CC(=O)Nc1cc(Nc2ncc(Cl)c(Nc3ccccc3P(C)(C)=O)n2)ccc1N1CCC2(CC1)CN(C)C2 [Compound 14, N-(5-((5-chloro-4-((2-(dimethylphosphoryl)phenyl)amino)pyrimidin-2-yl)amino)-2-(2-methyl-2,7-diazaspiro[3.5]nonan-7-yl)phenyl)acrylamide hydrochloric acid salt]
[5]
  IC50: 10 to 50 nM
[2]
  IC50: 10 to 50 nM
[6]
  IC50: < 10 nM
[4]
  IC50: < 10 nM
[7]
  IC50: < 10 nM

## C=CC(=O)N(C)c1cc(Nc2ncc(Cl)c(Nc3ccccc3P(C)(C)=O)n2)ccc1N1CCC2(CC1)CC(N(C)C)C2 [Compound 6, N-(5-((5-chloro-4-((2-(dimethylphosphoryl)phenyl)amino)pyrimidin-2-yl)amino)-2-(2-(dimethylamino)-7-azaspiro[3.5]nonan-7-yl)phenyl)-N-methylacrylamide]
[3]
  GI50: 10 to 50 nM
[4]
  IC50: < 10 nM

## C=CC(=O)Nc1cc(Nc2ncc(C)c(Nc3ccccc3P(C)(C)=O)n2)ccc1N(C)CCN(C)C [Compound 19, N-(2-((2-(dimethylamino)ethyl)(methyl)amino)-5-((4-((2-(dimethylphosphoryl)phenyl)amino)-5-methylpyrimidin-2-yl)amino)phenyl)acrylamide hydrochloric acid salt]
[5]
  IC50: 10 to 50 nM
[2]
  IC50: < 10 nM
[6]
  IC50: < 10 nM
[3]
  GI50: 10 to 50 nM
[4]
  IC50: < 10 nM
[7]
  IC50: < 10 nM

## C=CC(=O)Nc1cc(Nc2ncc(Cl)c(Nc3ccccc3P(C)(C)=O)n2)ccc1OC1CCN(C)CC1 [Compound 41, N-(5-((5-chloro-4-((2-(dimethylphosphoryl)phenyl)amino)pyrimidin-2-yl)amino)-2-((1-methylpiperidin-4-yl)oxy)phenyl)acrylamide]
[5]
  IC50: 10 to 50 nM
[2]
  IC50: 10 to 50 nM
[6]
  IC50: < 10 nM
[4]
  IC50: < 10 nM
[7]
  IC50: 10 to 100 nM

## C=CC(=O)Nc1cc(Nc2ncc(Cl)c(Nc3ccccc3P(C)(C)=O)n2)c(OC)cc1N1CCC2(CC1)CC(N(C)C)C2 [Compound 5, N-(5-((5-chloro-4-((2-(dimethylphosphoryl)phenyl)amino)pyrimidin-2-yl)amino)-2-(2-(dimethylamino)-7-azaspiro[3.5]nonan-7-yl)-4-methoxyphenyl)acrylamide]
[5]
  IC50: < 10 nM
[2]
  IC50: 10 to 50 nM
[6]
  IC50: < 10 nM
[4]
  IC50: < 10 nM
[7]
  IC50: 10 to 100 nM

## C=C(F)C(=O)Nc1cc(Nc2ncc(Cl)c(Nc3ccccc3P(C)(C)=O)n2)ccc1N1CCC2(CC1)CC(N(C)C)C2 [Compound 9, N-(5-((5-chloro-4-((2-(dimethylphosphoryl)phenyl)amino)pyrimidin-2-yl)amino)-2-(2-(dimethylamino)-7-azaspiro[3.5]nonan-7-yl)phenyl)-2-fluoroacrylamide]
[1]
  GI50: 10 to 50 nM
[3]
  GI50: 10 to 50 nM
[4]
  IC50: < 10 nM

## C=CC(=O)Nc1cc(Nc2ncc(F)c(Nc3ccccc3P(C)(C)=O)n2)ccc1N1CCC(N2CCN(C)CC2)CC1 [Compound 29, N-(5-((4-((2-(dimethylphosphoryl)phenyl)amino)-5-fluoropyrimidin-2-yl)amino)-2-(4-(4-methylpiperazin-1-yl)piperidin-1-yl)phenyl)acrylamide]
[2]
  IC50: 10 to 50 nM
[6]
  IC50: < 10 nM
[3]
  GI50: 10 to 50 nM
[4]
  IC50: < 10 nM
[7]
  IC50: 10 to 100 nM

## C=CC(=O)Nc1cc(Nc2ncc(Br)c(Nc3ccc4nccnc4c3P(C)(C)=O)n2)ccc1N1CCC(N2CCN(C)CC2)CC1 [Compound 12, N-(5-((5-bromo-4-((5-(dimethylphosphoryl)quinoxalin-6-yl)amino)pyrimidin-2-yl)amino)-2-(4-(4-methylpiperazin-1-yl)piperidin-1-yl)phenyl)acrylamide]
[5]
  IC50: 10 to 50 nM
[1]
  GI50: 10 to 50 nM
[2]
  IC50: 10 to 50 nM
[3]
  GI50: 10 to 50 nM

## C=CC(=O)Nc1cc(Nc2ncc(C)c(Nc3ccccc3P(C)(C)=O)n2)ccc1N1CCC(N2CCN(C)CC2)CC1 [Compound 20, N-(5-((4-((2-(dimethylphosphoryl)phenyl)amino)-5-methylpyrimidin-2-yl)amino)-2-(4-(4-methylpiperazin-1-yl)piperidin-1-yl)phenyl)acrylamide]
[5]
  IC50: 10 to 50 nM
[2]
  IC50: < 10 nM
[6]
  IC50: < 10 nM
[3]
  GI50: 10 to 50 nM
[4]
  IC50: < 10 nM
[7]
  IC50: < 10 nM

## C=CC(=O)Nc1cc(Nc2ncc(Cl)c(Nc3ccc4nccnc4c3P(C)(C)=O)n2)c(OC)cc1N1CCC2(CC1)CC(N(C)C)C2 [Compound 11, N-(5-((5-chloro-4-((5-(dimethylphosphoryl)quinoxalin-6-yl)amino)pyrimidin-2-yl)amino)-2-(2-(dimethylamino)-7-azaspiro[3.5]nonan-7-yl)-4-methoxyphenyl)acrylamide]
[5]
  IC50: 10 to 50 nM
[2]
  IC50: 10 to 50 nM
[3]
  GI50: 10 to 50 nM
[4]
  IC50: < 10 nM

## C=CC(=O)Nc1cc(Nc2ncc(Cl)c(Nc3ccccc3P(C)(C)=O)n2)c(OC)cc1N1CCC2(CCC(N(C)C)CC2)CC1 [Compound 33, N-(5-(5-chloro-4-(2-(dimethylphosphoryl)phenylamino)pyrimidin-2-ylamino)-2-(9-(dimethylamino)-3-azaspiro[5.5]undecan-3-yl)-4-methoxyphenyl)acrylamide]
[5]
  IC50: 10 to 50 nM
[2]
  IC50: 10 to 50 nM
[6]
  IC50: < 10 nM
[4]
  IC50: < 10 nM
[7]
  IC50: 10 to 100 nM
